Data published in patent US20230085307A1, “PYRIDAZINONE COMPOUND AND HERBICIDE” (NISSAN CHEMICAL CORPORATION, priority 2019, published 2023).

Key:
barnyard grass [1] = experiment: Test Example 3: herbicidal effect by foliage application, Wagner pot (Table 18, symbol H); assay type: in vivo, barnyard grass (Echinochloa crus-galli); settings: 80 g/ha
Summary of the method: (§1)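 Plants were sown in alluvial soil held under 0.1–0.5 cm standing water and grown 14 days in a greenhouse at 25–30 °C. An emulsifiable formulation, water-diluted to the set dose, was then sprayed onto the foliage, and effects were scored three weeks later using previously defined criteria.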

Chinese sprangletop = experiment: Test Example 3: herbicidal effect by foliage application, Wagner pot (Table 18, symbol D); assay type: in vivo, chinese sprangletop (Leptochloa chinensis); settings: 80 g/ha
Summary of the method: as §1

rice flat sedge = experiment: Test Example 3: herbicidal effect by foliage application, Wagner pot (Table 18, symbol E); assay type: in vivo, rice flat sedge (Cyperus iria); settings: 80 g/ha
Summary of the method: as §1

southern crabgrass [2] = experiment: Test Example 4: herbicidal effect by soil treatment (Table 19, symbol F); assay type: in vivo, southern crabgrass (Digitaria ciliaris)
Summary of the method: (§2)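 In this soil treatment, the formulated compound reached the seeds only through the soil: seeds were buried about 1.5 cm deep in sterilized diluvial soil, then the diluted emulsion was sprayed over the surface. After three weeks at 25° C. to 30° C. in a greenhouse, effects were graded on criteria from an earlier test.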

green foxtail [3] = experiment: Test Example 4: herbicidal effect by soil treatment (Table 19, symbol G); assay type: in vivo, green foxtail (Setaria viridis)
Summary of the method: as §2

barnyard grass [4] = experiment: Test Example 4: herbicidal effect by soil treatment (Table 19, symbol H); assay type: in vivo, barnyard grass (Echinochloa crus-galli)
Summary of the method: as §2

wild oat [5] = experiment: Test Example 4: herbicidal effect by soil treatment (Table 19, symbol I); assay type: in vivo, wild oat (Avena fatua)
Summary of the method: as §2

blackgrass [6] = experiment: Test Example 4: herbicidal effect by soil treatment (Table 19, symbol J); assay type: in vivo, blackgrass (Alopecurus myosuroides)
Summary of the method: as §2

Italian ryegrass [7] = experiment: Test Example 4: herbicidal effect by soil treatment (Table 19, symbol K); assay type: in vivo, Italian ryegrass (Lolium multiflorum)
Summary of the method: as §2

windgrass [8] = experiment: Test Example 4: herbicidal effect by soil treatment (Table 19, symbol L); assay type: in vivo, windgrass (Apera spica-venti)
Summary of the method: as §2

velvetleaf [9] = experiment: Test Example 4: herbicidal effect by soil treatment (Table 19, symbol M); assay type: in vivo, velvetleaf (Abutilon theophrasti)
Summary of the method: as §2

redroot pigweed [10] = experiment: Test Example 4: herbicidal effect by soil treatment (Table 19, symbol N); assay type: in vivo, redroot pigweed (Amaranthus retroflexus)
Summary of the method: as §2

lambsquarters [11] = experiment: Test Example 4: herbicidal effect by soil treatment (Table 19, symbol O); assay type: in vivo, lambsquarters (Chenopodium album)
Summary of the method: as §2

chickweed [12] = experiment: Test Example 4: herbicidal effect by soil treatment (Table 19, symbol P); assay type: in vivo, common chickweed (Stellaria media)
Summary of the method: as §2

false cleavers = experiment: Test Example 4: herbicidal effect by soil treatment (Table 19, symbol Q); assay type: in vivo, false cleavers (Galium spurium)
Summary of the method: as §2

persian speedwell [13] = experiment: Test Example 4: herbicidal effect by soil treatment (Table 19, symbol R); assay type: in vivo, Persian speedwell (Veronica persica)
Summary of the method: as §2

southern crabgrass [14] = experiment: Test Example 5: herbicidal effect by foliage application, plastic box (Table 20, symbol F); assay type: in vivo, southern crabgrass (Digitaria ciliaris); settings: foliage application, three weeks after application
Summary of the method: (§3)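 Plants were sown into sterilized diluvial soil under about 1.5 cm cover and kept in a greenhouse at 25° C. to 30° C. Fourteen days on, foliage received an even spray of the diluted emulsion. Herbicidal or crop effect was judged three weeks afterwards.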

green foxtail [15] = experiment: Test Example 5: herbicidal effect by foliage application, plastic box (Table 20, symbol G); assay type: in vivo, green foxtail (Setaria viridis); settings: foliage application, three weeks after application
Summary of the method: as §3

barnyard grass [16] = experiment: Test Example 5: herbicidal effect by foliage application, plastic box (Table 20, symbol H); assay type: in vivo, barnyard grass (Echinochloa crus-galli); settings: foliage application, three weeks after application
Summary of the method: as §3

wild oat [17] = experiment: Test Example 5: herbicidal effect by foliage application, plastic box (Table 20, symbol I); assay type: in vivo, wild oat (Avena fatua); settings: foliage application, three weeks after application
Summary of the method: as §3

blackgrass [18] = experiment: Test Example 5: herbicidal effect by foliage application, plastic box (Table 20, symbol J); assay type: in vivo, blackgrass (Alopecurus myosuroides); settings: foliage application, three weeks after application
Summary of the method: as §3

Italian ryegrass [19] = experiment: Test Example 5: herbicidal effect by foliage application, plastic box (Table 20, symbol K); assay type: in vivo, Italian ryegrass (Lolium multiflorum); settings: foliage application, three weeks after application
Summary of the method: as §3

windgrass [20] = experiment: Test Example 5: herbicidal effect by foliage application, plastic box (Table 20, symbol L); assay type: in vivo, windgrass (Apera spica-venti); settings: foliage application, three weeks after application
Summary of the method: as §3

velvetleaf [21] = experiment: Test Example 5: herbicidal effect by foliage application, plastic box (Table 20, symbol M); assay type: in vivo, velvetleaf (Abutilon theophrasti); settings: foliage application, three weeks after application
Summary of the method: as §3

redroot pigweed [22] = experiment: Test Example 5: herbicidal effect by foliage application, plastic box (Table 20, symbol N); assay type: in vivo, redroot pigweed (Amaranthus retroflexus); settings: foliage application, three weeks after application
Summary of the method: as §3

lambsquarters [23] = experiment: Test Example 5: herbicidal effect by foliage application, plastic box (Table 20, symbol O); assay type: in vivo, lambsquarters (Chenopodium album); settings: foliage application, three weeks after application
Summary of the method: as §3

chickweed [24] = experiment: Test Example 5: herbicidal effect by foliage application, plastic box (Table 20, symbol P); assay type: in vivo, common chickweed (Stellaria media); settings: foliage application, three weeks after application
Summary of the method: as §3

persian speedwell [25] = experiment: Test Example 5: herbicidal effect by foliage application, plastic box (Table 20, symbol R); assay type: in vivo, Persian speedwell (Veronica persica); settings: foliage application, three weeks after application
Summary of the method: as §3

[26] = amount of applied herbicide 320 g/ha

Question: Which “herbicidal effect on H (barnyard grass), rating 0-5” value (barnyard grass [1]) does the source give for COc1ccc(-c2sc3ccccc3c2-c2c(O)c(OC)nn(C)c2=O)cc1OC [1-182] here?
Answer: 4 (Herbicidal rate of 70% or more and less than 90%)

Question: And the “herbicidal effect on D (Chinese sprangletop), rating 0-5” value (Chinese sprangletop)?
Answer: 3 (Herbicidal rate of 40% or more and less than 70%)

Question: What about the “herbicidal effect on E (rice flat sedge), rating 0-5” value (rice flat sedge) of the same compound?
Answer: 5 (Herbicidal rate of 90% or more (almost completely withered))

Question: What about the “F: southern crabgrass, herbicidal effect rating” value (southern crabgrass [2]; AAH 80 g/ha) of the same compound?
Answer: 1 (Herbicidal rate of 5% or more and less than 20%)

Question: What about the “G: green foxtail, herbicidal effect rating” value (green foxtail [3]; AAH 80 g/ha) of the same compound?
Answer: 5 (Herbicidal rate of 90% or more (almost completely withered))

Question: And the “H: barnyard grass, herbicidal effect rating” value (barnyard grass [4]; AAH 80 g/ha)?
Answer: 0 (Herbicidal rate of 5% or less (almost no effect))

Question: What about the “I: wild oat, herbicidal effect rating” value (wild oat [5]; AAH 80 g/ha) of the same compound?
Answer: 0 (Herbicidal rate of 5% or less (almost no effect))

Question: What about the “J: blackgrass, herbicidal effect rating” value (blackgrass [6]; AAH 80 g/ha) of the same compound?
Answer: 0 (Herbicidal rate of 5% or less (almost no effect))

Question: What about the “K: Italian ryegrass, herbicidal effect rating” value (Italian ryegrass [7]; AAH 80 g/ha) of the same compound?
Answer: 0 (Herbicidal rate of 5% or less (almost no effect))

Question: What about the “L: windgrass, herbicidal effect rating” value (windgrass [8]; AAH 80 g/ha) of the same compound?
Answer: 0 (Herbicidal rate of 5% or less (almost no effect))

Question: And the “M: velvetleaf, herbicidal effect rating” value (velvetleaf [9]; AAH 80 g/ha)?
Answer: 1 (Herbicidal rate of 5% or more and less than 20%)

Question: What about the “N: redroot pigweed, herbicidal effect rating” value (redroot pigweed [10]; AAH 80 g/ha) of the same compound?
Answer: 5 (Herbicidal rate of 90% or more (almost completely withered))

Question: What about the “O: lambsquarters, herbicidal effect rating” value (lambsquarters [11]; AAH 80 g/ha) of the same compound?
Answer: 4 (Herbicidal rate of 70% or more and less than 90%)

Question: And the “P: chickweed, herbicidal effect rating” value (chickweed [12]; AAH 80 g/ha)?
Answer: 4 (Herbicidal rate of 70% or more and less than 90%)

Question: What about the “Q: false cleavers, herbicidal effect rating” value (false cleavers; AAH 80 g/ha) of the same compound?
Answer: 0 (Herbicidal rate of 5% or less (almost no effect))

Question: And the “R: persian speedwell, herbicidal effect rating” value (persian speedwell [13]; AAH 80 g/ha)?
Answer: 5 (Herbicidal rate of 90% or more (almost completely withered))

Question: What about the “F: southern crabgrass, herbicidal effect” value (southern crabgrass [14]; AAH 80 g/ha) of the same compound?
Answer: 3 (Herbicidal rate of 40% or more and less than 70%)

Question: What about the “G: green foxtail, herbicidal effect” value (green foxtail [15]; AAH 80 g/ha) of the same compound?
Answer: 4 (Herbicidal rate of 70% or more and less than 90%)

Question: What about the “H: barnyard grass, herbicidal effect” value (barnyard grass [16]; AAH 80 g/ha) of the same compound?
Answer: 3 (Herbicidal rate of 40% or more and less than 70%)

Question: What about the “I: wild oat, herbicidal effect” value (wild oat [17]; AAH 80 g/ha) of the same compound?
Answer: 0 (Herbicidal rate of 5% or less (almost no effect))

Question: What about the “J: blackgrass, herbicidal effect” value (blackgrass [18]; AAH 80 g/ha) of the same compound?
Answer: 0 (Herbicidal rate of 5% or less (almost no effect))

Question: And the “K: Italian ryegrass, herbicidal effect” value (Italian ryegrass [19]; AAH 80 g/ha)?
Answer: 3 (Herbicidal rate of 40% or more and less than 70%)

Question: And the “L: windgrass, herbicidal effect” value (windgrass [20]; AAH 80 g/ha)?
Answer: 0 (Herbicidal rate of 5% or less (almost no effect))

Question: And the “M: velvetleaf, herbicidal effect” value (velvetleaf [21]; AAH 80 g/ha)?
Answer: 4 (Herbicidal rate of 70% or more and less than 90%)

Question: And the “N: redroot pigweed, herbicidal effect” value (redroot pigweed [22]; AAH 80 g/ha)?
Answer: 3 (Herbicidal rate of 40% or more and less than 70%)

Question: What about the “O: lambsquarters, herbicidal effect” value (lambsquarters [23]; AAH 80 g/ha) of the same compound?
Answer: 5 (Herbicidal rate of 90% or more (almost completely withered))

Question: What about the “P: chickweed, herbicidal effect” value (chickweed [24]; AAH 80 g/ha) of the same compound?
Answer: 5 (Herbicidal rate of 90% or more (almost completely withered))

Question: And the “R: persian speedwell, herbicidal effect” value (persian speedwell [25]; AAH 80 g/ha)?
Answer: 5 (Herbicidal rate of 90% or more (almost completely withered))

Question: Which results are given for Cc1nn(C)c(=O)c(-c2c(-c3ccc(SCC#N)cc3)sc3ccc(F)cc23)c1O [2-423]?
Answer: herbicidal effect, F: southern crabgrass (southern crabgrass [2]; [26]): 0 (Herbicidal rate of 5% or less (almost no effect)); herbicidal effect, G: green foxtail (green foxtail [3]; [26]): 4 (Herbicidal rate of 70% or more and less than 90%); herbicidal effect, H: barnyard grass (barnyard grass [4]; [26]): 1 (Herbicidal rate of 5% or more and less than 20%); herbicidal effect, I: wild oat (wild oat [5]; [26]): 0 (Herbicidal rate of 5% or less (almost no effect)); herbicidal effect, J: blackgrass (blackgrass [6]; [26]): 0 (Herbicidal rate of 5% or less (almost no effect)); herbicidal effect, K: Italian ryegrass (Italian ryegrass [7]; [26]): 3 (Herbicidal rate of 40% or more and less than 70%); herbicidal effect, L: windgrass (windgrass [8]; [26]): 1 (Herbicidal rate of 5% or more and less than 20%); herbicidal effect, M: velvetleaf (velvetleaf [9]; [26]): 1 (Herbicidal rate of 5% or more and less than 20%); herbicidal effect, N: redroot pigweed (redroot pigweed [10]; [26]): 5 (Herbicidal rate of 90% or more (almost completely withered)); herbicidal effect, O: lambsquarters (lambsquarters [11]; [26]): 4 (Herbicidal rate of 70% or more and less than 90%); herbicidal effect, P: chickweed (chickweed [12]; [26]): 5 (Herbicidal rate of 90% or more (almost completely withered)); herbicidal effect, Q: false cleavers (false cleavers; [26]): 0 (Herbicidal rate of 5% or less (almost no effect)); herbicidal effect, R: persian speedwell (persian speedwell [13]; [26]): 4 (Herbicidal rate of 70% or more and less than 90%); F: southern crabgrass, herbicidal effect grade (southern crabgrass [14]; 320 g/ha): 0 (Herbicidal rate of 5% or less (almost no effect)); G: green foxtail, herbicidal effect grade (green foxtail [15]; 320 g/ha): 5 (Herbicidal rate of 90% or more (almost completely withered)); H: barnyard grass, herbicidal effect grade (barnyard grass [16]; 320 g/ha): 5 (Herbicidal rate of 90% or more (almost completely withered)); I: wild oat, herbicidal effect grade (wild oat [17]; 320 g/ha): 5 (Herbicidal rate of 90% or more (almost completely withered)); J: blackgrass, herbicidal effect grade (blackgrass [18]; 320 g/ha): 4 (Herbicidal rate of 70% or more and less than 90%); K: Italian ryegrass, herbicidal effect grade (Italian ryegrass [19]; 320 g/ha): 5 (Herbicidal rate of 90% or more (almost completely withered)); L: windgrass, herbicidal effect grade (windgrass [20]; 320 g/ha): 5 (Herbicidal rate of 90% or more (almost completely withered)); M: velvetleaf, herbicidal effect grade (velvetleaf [21]; 320 g/ha): 5 (Herbicidal rate of 90% or more (almost completely withered)); N: redroot pigweed, herbicidal effect grade (redroot pigweed [22]; 320 g/ha): 5 (Herbicidal rate of 90% or more (almost completely withered)); O: lambsquarters, herbicidal effect grade (lambsquarters [23]; 320 g/ha): 5 (Herbicidal rate of 90% or more (almost completely withered)); P: chickweed, herbicidal effect grade (chickweed [24]; 320 g/ha): 5 (Herbicidal rate of 90% or more (almost completely withered)); R: persian speedwell, herbicidal effect grade (persian speedwell [25]; 320 g/ha): 5 (Herbicidal rate of 90% or more (almost completely withered))
